# In US20210395313A1, “PEPTIDE PAC1 ANTAGONISTS” (AMGEN INC., priority 2017, published 2021):
# Where a SMILES comes first, the peptide text is derived from it. Bridges are numbered along the chain shown (N, C = ends).
# Target: T1, rat PAC1 receptor (Rattus norvegicus, UniProt P32215)
# T1 construct: SHSY-5Y (human neuroblastoma cell line) and RG-2 (rat glioma cell line) cells endogenously express human and rat PAC1 receptors, respectively; endogenous in cells; host or cells: RG-2 rat glioma cells
# T1 sequence (P32215 20-523): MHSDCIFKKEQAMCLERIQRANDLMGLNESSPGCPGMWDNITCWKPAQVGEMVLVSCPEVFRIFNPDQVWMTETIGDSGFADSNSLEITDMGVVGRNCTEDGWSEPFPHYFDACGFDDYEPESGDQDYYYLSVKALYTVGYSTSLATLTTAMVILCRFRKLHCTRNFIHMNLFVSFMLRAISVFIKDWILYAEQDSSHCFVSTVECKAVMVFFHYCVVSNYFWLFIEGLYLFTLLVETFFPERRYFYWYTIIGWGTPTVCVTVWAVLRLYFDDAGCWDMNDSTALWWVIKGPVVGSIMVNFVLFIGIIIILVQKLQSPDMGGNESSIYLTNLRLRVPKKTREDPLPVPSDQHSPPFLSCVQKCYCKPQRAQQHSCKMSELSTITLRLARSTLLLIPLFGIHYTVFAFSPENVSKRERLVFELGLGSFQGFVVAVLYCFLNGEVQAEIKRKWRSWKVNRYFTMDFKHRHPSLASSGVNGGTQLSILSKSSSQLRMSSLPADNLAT
# Assay: LANCE Ultra cAMP accumulation antagonist assay in RG-2 cells;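 further: RG-2 rat glioma cells endogenously expressing PAC1, test peptide preincubated 30 min, then PAC1 agonist added at its EC80 for 15 min, cAMP accumulation read by LANCE Ultra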
# Assay type: cell-based
row,SMILES,IC50 [nM]
1,CC[C@H](C)[C@H](NC(=O)[C@H](C)NC(=O)[C@H](CCCCN)NC(=O)[C@H](CCCNC(=N)N)NC(=O)[C@H](Cc1ccccc1)NC(=O)[C@H](CCC(N)=O)NC(=O)[C@@H]1CSSC[C@H](N)C(=O)N[C@@H](CC(=O)O)C(=O)N[C@@H](C)C(=O)N[C@@H]([C@@H](C)O)C(=O)N1)C(=O)N[C@@H](CC(=O)O)C(=O)N[C@@H](CC(=O)O)C(=O)N[C@H]1CSSC[C@@H](C(=O)N[C@@H](CCSC)C(=O)N[C@@H](CCCCN)C(=O)N[C@@H](CCC(N)=O)C(=O)N[C@@H](CCCCN)C(=O)N[C@@H](CCCCN)C(=O)N[C@@H](CCCCN)C(=O)N[C@@H](CCC(=O)O)C(=O)N[C@@H](Cc2ccccc2)C(=O)N[C@@H](CCCCN)C(=O)N[C@@H](C)C(=O)NCC(=O)O)NC(=O)[C@H](C)NC(=O)[C@H](CCCCN)NC(=O)[C@H](Cc2ccccc2)NC(=O)[C@H](C(C)C)NC(=O)[C@H](CO)NC(=O)CNC(=O)[C@@H]2CCCN2C(=O)[C@H](C(C)C)NC(=O)[C@H](CC(N)=O)NC(=O)[C@H](CO)NC(=O)[C@H](Cc2c[nH]cn2)NC(=O)[C@H](Cc2c[nH]cn2)NC(=O)[C@H](C)NC(=O)[C@H](CCC(N)=O)NC(=O)[C@H](CCCCN)NC(=O)[C@H](CCC(N)=O)NC1=O [SEQ ID NO 190],0.01 to 1
2,"CC[C@H](C)[C@H](NC(=O)[C@H](C)NC(=O)[C@H](CCCCN)NC(=O)[C@H](CCCNC(=N)N)NC(=O)[C@H](Cc1ccccc1)NC(=O)[C@H](CCC(N)=O)NC(=O)[C@@H]1CSSC[C@H](N)C(=O)N[C@@H](CC(=O)O)C(=O)N[C@@H](C)C(=O)N[C@@H]([C@@H](C)O)C(=O)N1)C(=O)N[C@@H](CC(=O)O)C(=O)N[C@@H](CC(=O)O)C(=O)N[C@H]1CSSC[C@@H](C(=O)N[C@@H](CCSC)C(=O)N[C@@H](CCCCN)C(=O)N[C@@H](CCC(N)=O)C(=O)N[C@@H](CCCCN)C(=O)N[C@@H](CCCCN)C(=O)N[C@@H](CCCCN)C(=O)N[C@@H](CCC(=O)O)C(=O)N[C@@H](Cc2c[nH]c3ccccc23)C(=O)N[C@@H](CCCCN)C(=O)N[C@@H](C)C(=O)NCC(N)=O)NC(=O)[C@H](C)NC(=O)[C@H](CCCCN)NC(=O)[C@H](Cc2ccccc2)NC(=O)[C@H](C(C)C)NC(=O)[C@H](CO)NC(=O)[C@H](C)NC(=O)[C@H](Cc2c[nH]cn2)NC(=O)[C@H](Cc2ccc(O)cc2)NC(=O)[C@H](C)NC(=O)[C@H](CCC(N)=O)NC(=O)[C@H](CCCNC(=N)N)NC(=O)[C@H](C)NC1=O [compound 428] (H-CDATCQFRKAIDDCARQAYHASVFKACMKQKKKEWKAG-NH2; disulfide 1-5, 14-27)",< 0.01
3,"CC[C@H](C)[C@H](NC(=O)[C@H](C)NC(=O)[C@H](CCCCN)NC(=O)[C@H](CCCNC(=N)N)NC(=O)[C@H](Cc1ccccc1)NC(=O)[C@H](CCC(N)=O)NC(=O)[C@@H]1CSSC[C@H](N)C(=O)N[C@@H](CC(=O)O)C(=O)N[C@@H](C)C(=O)N[C@@H]([C@@H](C)O)C(=O)N1)C(=O)N[C@@H](CC(=O)O)C(=O)N[C@@H](CC(=O)O)C(=O)N[C@H]1CSSC[C@@H](C(=O)N[C@@H](CCSC)C(=O)N[C@@H](CCCCN)C(=O)N[C@@H](CCC(N)=O)C(=O)N[C@@H](CCCCN)C(=O)N[C@@H](CCCCN)C(=O)N[C@@H](CCCCN)C(=O)N[C@@H](CCC(=O)O)C(=O)N[C@@H](Cc2c[nH]c3ccccc23)C(=O)N[C@@H](CCCCN)C(=O)N[C@@H](C)C(=O)NCC(N)=O)NC(=O)[C@H](C)NC(=O)[C@H](CCCCN)NC(=O)[C@H](Cc2ccccc2)NC(=O)[C@H](C(C)C)NC(=O)[C@H](CO)NC(=O)[C@H](CC(N)=O)NC(=O)[C@H](CO)NC(=O)[C@H](Cc2c[nH]cn2)NC(=O)[C@H](Cc2ccc(O)cc2)NC(=O)[C@H](C)NC(=O)[C@H](CCC(N)=O)NC(=O)[C@H](CCCNC(=N)N)NC(=O)[C@H](C)NC1=O [compound 429] (H-CDATCQFRKAIDDCARQAYHSNSVFKACMKQKKKEWKAG-NH2; disulfide 1-5, 14-28)",< 0.01
4,"CC[C@H](C)[C@H](NC(=O)[C@H](C)NC(=O)[C@H](CCCCN)NC(=O)[C@H](CCCNC(=N)N)NC(=O)[C@H](Cc1ccccc1)NC(=O)[C@H](CCC(N)=O)NC(=O)[C@@H]1CSSC[C@H](N)C(=O)N[C@@H](CC(=O)O)C(=O)N[C@@H](C)C(=O)N[C@@H]([C@@H](C)O)C(=O)N1)C(=O)N[C@@H](CC(=O)O)C(=O)N[C@@H](CC(=O)O)C(=O)N[C@H]1CSSC[C@@H](C(=O)N[C@@H](CCSC)C(=O)N[C@@H](CCCCN)C(=O)N[C@@H](CCC(N)=O)C(=O)N[C@@H](CCCCN)C(=O)N[C@@H](CCCCN)C(=O)N[C@@H](CCCCN)C(=O)N[C@@H](CCC(=O)O)C(=O)N[C@@H](Cc2c[nH]c3ccccc23)C(=O)N[C@@H](CCCCN)C(=O)N[C@@H](C)C(=O)NCC(N)=O)NC(=O)[C@H](CO)NC(=O)[C@H](CCCCN)NC(=O)[C@H](Cc2ccccc2)NC(=O)[C@H](C(C)C)NC(=O)[C@H](CO)NC(=O)[C@H](CO)NC(=O)[C@H](Cc2c[nH]cn2)NC(=O)[C@H](Cc2ccc(O)cc2)NC(=O)[C@H](C)NC(=O)[C@H](CCC(N)=O)NC(=O)[C@H](CCCNC(=N)N)NC(=O)[C@H](C)NC1=O [compound 430] (H-CDATCQFRKAIDDCARQAYHSSVFKSCMKQKKKEWKAG-NH2; disulfide 1-5, 14-27)",< 0.01
5,"CC[C@H](C)[C@H](NC(=O)[C@H](C)NC(=O)[C@H](CCCCN)NC(=O)[C@H](CCCNC(=N)N)NC(=O)[C@H](Cc1ccccc1)NC(=O)[C@H](CCC(N)=O)NC(=O)[C@@H]1CSSC[C@H](N)C(=O)N[C@@H](CC(=O)O)C(=O)N[C@@H](C)C(=O)N[C@@H]([C@@H](C)O)C(=O)N1)C(=O)N[C@@H](CC(=O)O)C(=O)N[C@@H](CC(=O)O)C(=O)N[C@H]1CSSC[C@@H](C(=O)N[C@@H](CCSC)C(=O)N[C@@H](CCCCN)C(=O)N[C@@H](CCC(N)=O)C(=O)N[C@@H](CCCCN)C(=O)N[C@@H](CCCCN)C(=O)N[C@@H](CCCCN)C(=O)N[C@@H](CCC(=O)O)C(=O)N[C@@H](Cc2c[nH]c3ccccc23)C(=O)N[C@@H](CCCCN)C(=O)N[C@@H](C)C(=O)NCC(N)=O)NC(=O)[C@H](C)NC(=O)[C@H](CCCCN)NC(=O)[C@H](Cc2ccccc2)NC(=O)[C@H](C(C)C)NC(=O)[C@H](CO)NC(=O)[C@H](CO)NC(=O)[C@H](Cc2c[nH]cn2)NC(=O)[C@H](Cc2ccc(O)cc2)NC(=O)[C@H](C)NC(=O)[C@H](CO)NC(=O)[C@H](CCCNC(=N)N)NC(=O)[C@H](C)NC1=O [compound 431] (H-CDATCQFRKAIDDCARSAYHSSVFKACMKQKKKEWKAG-NH2; disulfide 1-5, 14-27)",< 0.01
6,"CC[C@H](C)[C@H](NC(=O)[C@H](C)NC(=O)[C@H](CCCCN)NC(=O)[C@H](CCCNC(=N)N)NC(=O)[C@H](Cc1ccccc1)NC(=O)[C@H](CCC(N)=O)NC(=O)[C@@H]1CSSC[C@H](N)C(=O)N[C@@H](CC(=O)O)C(=O)N[C@@H](C)C(=O)N[C@@H]([C@@H](C)O)C(=O)N1)C(=O)N[C@@H](CC(=O)O)C(=O)N[C@@H](CC(=O)O)C(=O)N[C@H]1CSSC[C@@H](C(=O)N[C@@H](CCSC)C(=O)N[C@@H](CCCCN)C(=O)N[C@@H](CCC(N)=O)C(=O)N[C@@H](CCCCN)C(=O)N[C@@H](CCCCN)C(=O)N[C@@H](CCCCN)C(=O)N[C@@H](CCC(=O)O)C(=O)N[C@@H](Cc2c[nH]c3ccccc23)C(=O)N[C@@H](CCCCN)C(=O)N[C@@H](C)C(=O)NCC(N)=O)NC(=O)[C@H](C)NC(=O)[C@H](CCCCN)NC(=O)[C@H](Cc2ccccc2)NC(=O)[C@H](C(C)C)NC(=O)[C@H](CO)NC(=O)[C@H](CO)NC(=O)[C@H](Cc2c[nH]cn2)NC(=O)[C@H](Cc2ccc(O)cc2)NC(=O)[C@H](CO)NC(=O)[C@H](CCC(N)=O)NC(=O)[C@H](CCCNC(=N)N)NC(=O)[C@H](C)NC1=O [compound 432] (H-CDATCQFRKAIDDCARQSYHSSVFKACMKQKKKEWKAG-NH2; disulfide 1-5, 14-27)",< 0.01
